Drawing on ChEMBL document CHEMBL1127760, “Blood-brain penetration of 5-hydroxytryptamine derivatives” (Bioorg Med Chem Lett, 1994), this text covers Activity for three molecules.

Activity calls are given as the source filed them. No cut-off for these calls is given here.

In assay [1] the test system is Mus musculus. Kind of assay: Locomotor activity of the mice was determined at a dose of 50 ng/Kg after 30-45 min of intracerebroventricular (icv) injection; Significantly reduced. The class given is functional, organism-based.
The subject of assay [2] is Mus musculus. Briefly: Locomotor activity of the mice was determined at a dose of 50 ng/Kg after 45-60 min of intracerebroventricular (icv) injection; Significantly reduced. The class given is functional, organism-based.

For `COc1ccc2[nH]cc(CCNC(C)=O)c2c1`, the outcome in the assay with Mus musculus [1] and in the assay with Mus musculus [2] was Active.

As for `CC(=O)NCCc1c[nH]c2ccc(O)cc12`, the result in the assay with Mus musculus [1] and in the assay on Mus musculus [2] was Active.

Consider `CCCCCCCCCCCCCCCCOP(=O)(OCCOC1CC(O)C(O)C(CO)O1)Oc1ccc2[nH]cc(CCNC(C)=O)c2c1` (stereo unspecified), for which the Activity entry in the assay on Mus musculus [1] and in the assay with Mus musculus [2] was “Significantly reduced” in each case.
